Source: patent US7879910B1, “Compositions and methods for promoting lush hair growth” (Jan Marini Skin Research, Inc., priority 2006, dated 2011)

Experiments:
[1] = Metabolic conversion to the acid form [+]fluprostenol once absorbed in the body; type: in vivo, mammal; conditions: assessed by comparison of PGF2α analogs
From the text: In particular, the 5-Heptenamide administered to a mammal can be metabolized to produce an acid form which is a single isomer of fluprostenol, [+]fluprostenol having the structure of
Since the compound of Formula I is an amide derivative of a PGF2α analog, once absorbed, hydrolysis by enzymes in the body converts the amide back to the biologically active carboxylic acid. In particular, the 5-Heptenamide can be metabolized to [+]fluprostenol which then binds to the prostaglandin receptor with high affinity and has reduced side effects such as eye irritation and hyperemia (excess blood in vessels supplying the eye).
When absorbed in the body, is also metabolized into [+]fluprostenol. Based on extensive studies comparing the chemical structures, ocular and dermal absorption, metabolism, potency at the biological target site, toxicological and pharmacological of PGF2α analogs and derivatives, such as bimatoprost and travoprost, the inventor believes that the compound of Formula I, in particular the 5-Heptenamide, has much more balanced and favorable profiles of safety and efficacy, especially for long term chronic application to the skin. […]

[2] = Estimated margin of safety for topical use; conditions: assuming absorbed daily dosage of 0.020 μg/kg/day; relative to no-observable-adverse-effect dose in long-term laboratory toxicity tests; conservatively estimated
From the text: When absorbed in the body, is also metabolized into [+]fluprostenol. Based on extensive studies comparing the chemical structures, ocular and dermal absorption, metabolism, potency at the biological target site, toxicological and pharmacological of PGF2α analogs and derivatives, such as bimatoprost and travoprost, the inventor believes that the compound of Formula I, in particular the 5-Heptenamide, has much more balanced and favorable profiles of safety and efficacy, especially for long term chronic application to the skin. […] Assuming an absorbed daily dosage of 0.020 μg/kg/day, due to tightness of the outmost keratinized skin layer (the stratum corneum) which causes percutaneous permeability of most drugs 100-1000 times less than through the conjunctiva (Urtti & Salminen (1993) Survey of Opthalmology 37:435-456) and the lower hydrolysis rate of the 5-Heptenamide than travoprost, the margin of safety for 5-Heptenamide is conservatively estimated to be about 71,000, which means normal use of the composition delivers a dose that is less than about one 71,000th the no-observable-adverse-effect dose in long-term laboratory toxicity tests.
Traditionally, a margin of safety of 100 (10 for interspecies extrapolation, and 10 for […]) is considered adequate. […]

Compound | conversion to [+]fluprostenol (acid form) [1] | margin of safety [2]
CCNC(=O)CCC/C=C\C[C@@H]1[C@H](/C=C/[C@@H](O)COc2cccc(C(F)(F)F)c2)[C@H](O)C[C@@H]1O (relative stereo) [5-Heptenamide, 5-Heptenamide, 7-(3,5-dihydroxy-2-(3-hydroxy-4-(3-(trifluoromethyl)phenoxy)-1-butenyl)cyclopentyl)-, N-ethyl, (1R-(1alpha(Z), 2beta(1E,3R*), 3alpha, 5alpha)] | not as quantitatively converted to the acid form | about 71,000
CC(C)OC(=O)CCC/C=C\C[C@@H]1[C@@H](/C=C/[C@@H](O)COc2cccc(C(F)(F)F)c2)[C@H](O)C[C@@H]1O [travoprost, Travoprost, reference compound] | essentially completely converted | –
